Tested on: 994946-033-R-J1-PDC complex spheroid viability
Test: Anticancer human tumor 994946-033-R-J1-PDC patient-derived melanoma cell line growth inhibition [POLQ]
Settings: for IC50: curve of first compound; for viability, T/C: stronger effect = lower value
Outline: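 PDC + HUVEC + MSC complex spheroids; POLQ inhibitors ± partner drugs; top conc. at/near clinical Cmax, else 10 microM (SN-38 1 microM), half-log dilutions; 37 degrees C, 5% CO2.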

[1] = second compound 0.0316 µM, first compound 0.0316 µM
[2] = second compound 0.0316 µM, first compound 0.1 µM
[3] = second compound 0.0316 µM, first compound 0.316 µM
[4] = second compound 0.0316 µM, first compound 1 µM
[5] = second compound 0.0316 µM, first compound 3.16 µM
[6] = second compound 0.0316 µM, first compound 10 µM
[7] = second compound 0.1 µM, first compound 0.0316 µM
[8] = second compound 0.1 µM, first compound 0.1 µM
[9] = second compound 0.1 µM, first compound 0.316 µM
[10] = second compound 0.1 µM, first compound 1 µM
[11] = second compound 0.1 µM, first compound 3.16 µM
[12] = second compound 0.1 µM, first compound 10 µM
[13] = second compound 0.316 µM, first compound 0.0316 µM
[14] = second compound 0.316 µM, first compound 0.1 µM
[15] = second compound 0.316 µM, first compound 0.316 µM
[16] = second compound 0.316 µM, first compound 1 µM
[17] = second compound 0.316 µM, first compound 3.16 µM
[18] = second compound 0.316 µM, first compound 10 µM
[19] = second compound 1 µM, first compound 0.0316 µM
[20] = second compound 1 µM, first compound 0.1 µM
[21] = second compound 1 µM, first compound 0.316 µM
[22] = second compound 1 µM, first compound 1 µM
[23] = second compound 1 µM, first compound 3.16 µM
[24] = second compound 1 µM, first compound 10 µM
[25] = second compound 3.16 µM, first compound 0.0316 µM
[26] = second compound 3.16 µM, first compound 0.1 µM
[27] = second compound 3.16 µM, first compound 0.316 µM
[28] = second compound 3.16 µM, first compound 1 µM
[29] = second compound 3.16 µM, first compound 3.16 µM
[30] = second compound 3.16 µM, first compound 10 µM
[31] = second compound 10 µM, first compound 0.0316 µM
[32] = second compound 10 µM, first compound 0.1 µM
[33] = second compound 10 µM, first compound 0.316 µM
[34] = second compound 10 µM, first compound 1 µM
[35] = second compound 10 µM, first compound 3.16 µM
[36] = second compound 10 µM, first compound 10 µM
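Further: spheroids exposed to drugs for 7 days.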
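Wherever viability, T/C is given: 100% = DMSO vehicle treated spheroids.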

O=C(Nc1ccc(O)c(NS(=O)(=O)c2ccc(F)cc2)c1)c1ccc(-c2ccccc2)cc1 + Nc1ccc(C#CCN(C(=O)Cc2ncc(C(F)(F)F)cc2C(F)(F)F)c2ccc(F)cc2)nn1
IC50 (second compound 0.0316 µM): 7.1 µM
IC50 (second compound 0.1 µM): 4.79 µM
IC50 (second compound 0.316 µM): 7.55 µM
IC50 (second compound 1 µM): 8.49 µM
IC50 (second compound 3.16 µM): 9.09 µM
IC50 (second compound 10 µM): > 10 µM
viability, T/C [1]: 79.4%
viability, T/C [2]: 95.7%
viability, T/C [3]: 92.9%
viability, T/C [4]: 77.1%
viability, T/C [5]: 84.1%
viability, T/C [6]: 35.6%
viability, T/C [7]: 104%
viability, T/C [8]: 94.1%
viability, T/C [9]: 100%
viability, T/C [10]: 111%
viability, T/C [11]: 59.8%
viability, T/C [12]: 32.7%
viability, T/C [13]: 88.2%
viability, T/C [14]: 134%
viability, T/C [15]: 97.6%
viability, T/C [16]: 89.9%
viability, T/C [17]: 93.1%
viability, T/C [18]: 36.7%
viability, T/C [19]: 98.1%
viability, T/C [20]: 74.2%
viability, T/C [21]: 133%
viability, T/C [22]: 117%
viability, T/C [23]: 92.8%
viability, T/C [24]: 42.9%
viability, T/C [25]: 114%
viability, T/C [26]: 84.7%
viability, T/C [27]: 98.4%
viability, T/C [28]: 94.4%
viability, T/C [29]: 67.4%
viability, T/C [30]: 48.8%
viability, T/C [31]: 78.7%
viability, T/C [32]: 78.4%
viability, T/C [33]: 79%
viability, T/C [34]: 96.5%
viability, T/C [35]: 76%
viability, T/C [36]: 53.1%

Nc1ccn(C2OC(CO)C(O)C2(F)F)c(=O)n1 (stereo not drawn) + Nc1ccc(C#CCN(C(=O)Cc2ncc(C(F)(F)F)cc2C(F)(F)F)c2ccc(F)cc2)nn1
IC50 (second compound 0.0316 µM): < 0.0316 µM
IC50 (second compound 0.1 µM): < 0.0316 µM
IC50 (second compound 0.316 µM): < 0.0316 µM
IC50 (second compound 1 µM): < 0.0316 µM
IC50 (second compound 3.16 µM): 0.0355 µM
IC50 (second compound 10 µM): 0.12 µM
viability, T/C [1]: 19.8%
viability, T/C [2]: 9.8%
viability, T/C [3]: 13.9%
viability, T/C [4]: 6.8%
viability, T/C [5]: 9.12%
viability, T/C [6]: 4.73%
viability, T/C [7]: 13.4%
viability, T/C [8]: 6.85%
viability, T/C [9]: 7.22%
viability, T/C [10]: 8.61%
viability, T/C [11]: 6.71%
viability, T/C [12]: 2.46%
viability, T/C [13]: 26.9%
viability, T/C [14]: 10.2%
viability, T/C [15]: 6.41%
viability, T/C [16]: 6.86%
viability, T/C [17]: 5.84%
viability, T/C [18]: 3.65%
viability, T/C [19]: 49.5%
viability, T/C [20]: 11.8%
viability, T/C [21]: 7.84%
viability, T/C [22]: 6.62%
viability, T/C [23]: 5.64%
viability, T/C [24]: 2.7%
viability, T/C [25]: 53.2%
viability, T/C [26]: 22.4%
viability, T/C [27]: 8.85%
viability, T/C [28]: 9.68%
viability, T/C [29]: 8.92%
viability, T/C [30]: 3.34%
viability, T/C [31]: 75.5%
viability, T/C [32]: 56.2%
viability, T/C [33]: 17.5%
viability, T/C [34]: 7.83%
viability, T/C [35]: 11.2%
viability, T/C [36]: 6.31%

COc1cccc(OCCCN)c1-c1cc(Nc2cnc(C#N)cn2)n[nH]1 + Nc1ccc(C#CCN(C(=O)Cc2ncc(C(F)(F)F)cc2C(F)(F)F)c2ccc(F)cc2)nn1
IC50 (second compound 0.0316 µM): 0.025 µM
IC50 (second compound 0.1 µM): 0.0235 µM
IC50 (second compound 0.316 µM): 0.0171 µM
IC50 (second compound 1 µM): 0.0161 µM
IC50 (second compound 3.16 µM): 0.0237 µM
IC50 (second compound 10 µM): 0.0197 µM
viability, T/C (second compound 0.0316 µM, first compound 0.00316 µM): 71%
viability, T/C (second compound 0.0316 µM, first compound 0.01 µM): 66.9%
viability, T/C [1]: 34.4%
viability, T/C [2]: 49%
viability, T/C [3]: 14.3%
viability, T/C [4]: 17.4%
viability, T/C (second compound 0.1 µM, first compound 0.00316 µM): 86.9%
viability, T/C (second compound 0.1 µM, first compound 0.01 µM): 69.2%
viability, T/C [7]: 38.4%
viability, T/C [8]: 39.4%
viability, T/C [9]: 25%
viability, T/C [10]: 24.3%
viability, T/C (second compound 0.316 µM, first compound 0.00316 µM): 92.2%
viability, T/C (second compound 0.316 µM, first compound 0.01 µM): 66.1%
viability, T/C [13]: 31.9%
viability, T/C [14]: 19.9%
viability, T/C [15]: 25.6%
viability, T/C [16]: 15.7%
viability, T/C (second compound 1 µM, first compound 0.00316 µM): 80.1%
viability, T/C (second compound 1 µM, first compound 0.01 µM): 60.7%
viability, T/C [19]: 34.6%
viability, T/C [20]: 24.4%
viability, T/C [21]: 17.6%
viability, T/C [22]: 19%
viability, T/C (second compound 3.16 µM, first compound 0.00316 µM): 94.6%
viability, T/C (second compound 3.16 µM, first compound 0.01 µM): 66.6%
viability, T/C [25]: 47.5%
viability, T/C [26]: 24.2%
viability, T/C [27]: 28.7%
viability, T/C [28]: 19.9%
viability, T/C (second compound 10 µM, first compound 0.00316 µM): 100%
viability, T/C (second compound 10 µM, first compound 0.01 µM): 64.5%
viability, T/C [31]: 30.5%
viability, T/C [32]: 44.3%
viability, T/C [33]: 30.3%
viability, T/C [34]: 19.1%

CCCS(=O)(=O)Nc1ccc(F)c(C(=O)c2c[nH]c3ncc(-c4ccc(Cl)cc4)cc23)c1F + Nc1ccc(C#CCN(C(=O)Cc2ncc(C(F)(F)F)cc2C(F)(F)F)c2ccc(F)cc2)nn1
IC50 (second compound 0.0316 µM): 6.87 µM
IC50 (second compound 0.1 µM): 6.95 µM
IC50 (second compound 0.316 µM): 6.8 µM
IC50 (second compound 1 µM): 7.46 µM
IC50 (second compound 3.16 µM): 7.31 µM
IC50 (second compound 10 µM): 6.3 µM
viability, T/C [1]: 64.2%
viability, T/C [2]: 88%
viability, T/C [3]: 102%
viability, T/C [4]: 75.3%
viability, T/C [5]: 107%
viability, T/C [6]: 31.9%
viability, T/C [7]: 99.6%
viability, T/C [8]: 93%
viability, T/C [9]: 95.9%
viability, T/C [10]: 115%
viability, T/C [11]: 100%
viability, T/C [12]: 26.8%
viability, T/C [13]: 80.6%
viability, T/C [14]: 98.9%
viability, T/C [15]: 93.9%
viability, T/C [16]: 118%
viability, T/C [17]: 84.5%
viability, T/C [18]: 32.5%
viability, T/C [19]: 84.5%
viability, T/C [20]: 94.2%
viability, T/C [21]: 114%
viability, T/C [22]: 124%
viability, T/C [23]: 108%
viability, T/C [24]: 31.3%
viability, T/C [25]: 95.5%
viability, T/C [26]: 134%
viability, T/C [27]: 99.2%
viability, T/C [28]: 127%
viability, T/C [29]: 90.9%
viability, T/C [30]: 34.6%
viability, T/C [31]: 114%
viability, T/C [32]: 85%
viability, T/C [33]: 85.9%
viability, T/C [34]: 96.2%
viability, T/C [35]: 95.6%
viability, T/C [36]: 19.6%

Source: PubChem BioAssay AID1963827 (Molecular Pharmacology Branch, DTP, NCI, 2024)
